In US20140274990A1, “CEFTOLOZANE PHARMACEUTICAL COMPOSITIONS” (Cubist Pharmaceuticals, Inc., priority 2013, published 2014):

Assay: stability testing of initial lyophilized ceftolozane pharmaceutical compositions, HPLC
Format: physicochemical
Conditions: certain lyophilized pharmaceutical compositions initially evaluated for intravenous administration
Description: As disclosed herein, ceftolozane was unstable in certain lyophilized pharmaceutical compositions initially evaluated for intravenous administration. In particular, a decrease in ceftolozane purity and the formation of multiple additional related substances were detected in certain initial ceftolozane pharmaceutical compositions by peaks in […] (HPLC) after stability testing. This testing pointed to the need to develop novel ceftolozane formulations providing increased ceftolozane stability. […] Nor does this disclosure provide guidance on the formation of ceftolozane pharmaceutical compositions to increase ceftolozane purity during stability testing or control the relative amounts of ceftolozane related substances detected by HPLC peak formation during stability testing.

Compound: Cn1c(N)c(NC(=O)NCCN)c[n+]1CC1=C(C(=O)O)N2C(=O)[C@@H](NC(=O)/C(=N\OC(C)(C)C(=O)[O-])c3nsc(N)n3)[C@H]2SC1 [ceftolozane, (6R,7R)-3-[(5-amino-4-{[(2-aminoethyl)carbamoyl]amino}-1-methyl-1H-pyrazol-2-ium-2-yl)methyl]-7-({(2Z)-2-(5-amino-1,2,4-thiadiazol-3-yl)-2-[(1-carboxy-1-methylethoxy)imino]acetyl}amino)-8-oxo-5-thia-1-azabicyclo[4.2.0]oct-2-ene-2-carboxylate]
- ceftolozane stability in lyophilized composition: unstable
